Experimental data published in US20080096967A1, “Formulations for Injection of Catecholic Butanes, Including Ndga Compounds, Into Animals” (priority 2005, published 2008).

Assays:
[1] = tested on: Sprague-Dawley rats; assay: 8-Day IV infusion toxicity study in Sprague-Dawley rats; assay type: in vivo
Method: Escalating doses of 0, 100, 150, or 200 mg/kg M4N in 10% HP-β-CD in PEG 300 (6.25 mg/mL) were administered by IV infusion once every four days to male and female Sprague-Dawley rats (3/each sex) at 8 mL/kg/hr. […] […] One male rat was found dead on the first day dosage during administration of the vehicle and one female rat was found dead on day 5 of the study at the end of the infusion of 100 mg/kg of the test material. These deaths were not considered related to the test article because for one rat no test article (only vehicle) was administered and for the other rat, this was a single event with other rats surviving multiple days of dosing at 200 mg/kg/day.

[2] = Solubility of M4N in water-insoluble lipids (visual inspection); assay type: physicochemical; settings: for solutions stable: corn oil; for stable at room temperature: sesame oil
[3] = 200 mg/kg/day, continued daily dosing phase

## COc1ccc(C[C@@H](C)[C@@H](C)Cc2ccc(OC)c(OC)c2)cc1OC [Formulation M4N, meso-1,4-bis(3,4-dimethoxyphenyl)-2,3-dimethylbutane]
[1]; [3]
  clinical observations: ptosis and hyperactivity: ptosis and hyperactivity occurred in one male and one female rat
  clinical observations: tremors: tremors did occur in one male and one female rat
[1]; 100, 150 or 200 mg/kg M4N in 10% HP-β-CD in PEG 300 (6.25 mg/mL), IV infusion 8 mL/kg/hr
  mortality: No obvious mortality related to M4N occurred
[1]; for up to eight consecutive days
  doses that appeared to be tolerated: ≤ 200 mg/kg/day
[1]; male and female rats
  body weight: gained weight throughout the study
[2]; 33% Peppermint Oil, 33% Tween ® 20, 33% PEG 400, M4N 60 mg/mL
  Stability Time at Room Temperature: >3 days
[2]; 33% Peppermint Oil, 33% Tween ® 20, 33% PEG 400, M4N 60 mg/mL, 40° C.
  Dissolution After Heating: Y at 40 °C
[2]; 40% Peppermint Oil, 40% PEG 400, 20% Glycerol, M4N 52 mg/mL, 40° C.
  Dissolution After Heating: Y at 40 °C
[2]; 45% Peppermint Oil, 45% PEG 400, 10% Glycerol, M4N 59 mg/mL, 40° C.
  Dissolution After Heating: Y at 40 °C
[2]; 50% Peppermint Oil, 50% PEG 300, M4N 40 mg/mL
  Stability Time at Room Temperature: >7 days
[2]; 50% Peppermint Oil, 50% PEG 300, M4N 40 mg/mL, 35° C.
  Dissolution After Heating: Y at 35 °C
[2]; 50% Peppermint Oil, 50% PEG 300, M4N 60 mg/mL
  Stability Time at Room Temperature: >7 days
[2]; 50% Peppermint Oil, 50% PEG 300, M4N 60 mg/mL, 35° C.
  Dissolution After Heating: Y at 35 °C
[2]; 50% Peppermint Oil, 50% PEG 300, M4N 125 mg/mL, 35° C.
  Dissolution After Heating: Y at 35 °C
[2]; 50% Peppermint Oil, 50% PEG 400, M4N 40 mg/mL
  Stability Time at Room Temperature: >7 days
[2]; 50% Peppermint Oil, 50% PEG 400, M4N 40 mg/mL, 40° C.
  Dissolution After Heating: Y at 40 °C
[2]; 50% Peppermint Oil, 50% PEG 400, M4N 60 mg/mL
  Stability Time at Room Temperature: >7 days
[2]; 50% Peppermint Oil, 50% PEG 400, M4N 60 mg/mL, 40° C.
  Dissolution After Heating: Y at 40 °C
[2]; 50% Peppermint Oil, 50% PEG 400, M4N 100 mg/mL, 40° C.
  Dissolution After Heating: Y at 40 °C
[2]; 50% Peppermint Oil, 50% PEG 400, M4N 125 mg/mL, 40° C.
  Dissolution After Heating: Y at 40 °C
[2]; 50% Peppermint Oil, 50% Sesame Oil, M4N 20 mg/mL
  Stability Time at Room Temperature: >3 days
[2]; 50% Peppermint Oil, 50% Sesame Oil, M4N 40 mg/mL
  Stability Time at Room Temperature: >3 days
[2]; 50% Peppermint Oil, 50% Sesame Oil, M4N 40 mg/mL, 40° C.
  Dissolution After Heating: Y at 40 °C
[2]; 50% Peppermint Oil, 50% Sesame Oil, M4N 60 mg/mL
  Stability Time at Room Temperature: >3 days
[2]; 50% Peppermint Oil, 50% Sesame Oil, M4N 60 mg/mL, 40° C.
  Dissolution After Heating: Y at 40 °C
[2]; 50% Peppermint Oil, 50% Tween ® 20, M4N 40 mg/mL
  Stability Time at Room Temperature: >3 days
[2]; 50% Peppermint Oil, 50% Tween ® 20, M4N 40 mg/mL, 40° C.
  Dissolution After Heating: Y at 40 °C
[2]; 50% Peppermint Oil, 50% Tween ® 20, M4N 60 mg/mL
  Stability Time at Room Temperature: >3 days
[2]; 50% Peppermint Oil, 50% Tween ® 20, M4N 60 mg/mL, 40° C.
  Dissolution After Heating: Y at 40 °C
[2]; 50% Peppermint Oil, 50% Tween ® 20, M4N 125 mg/mL, 40° C.
  Dissolution After Heating: Y at 40 °C
[2]; 60% Peppermint Oil, 40% PEG 300, M4N 60 mg/mL
  Stability Time at Room Temperature: >3 days
[2]; 60% Peppermint Oil, 40% PEG 300, M4N 60 mg/mL, 40° C.
  Dissolution After Heating: Y at 40 °C
[2]; 60% Peppermint Oil, 40% PEG 400, M4N 60 mg/mL, 40° C.
  Dissolution After Heating: Y at 40 °C
[2]; 75% Sesame Oil, 9% Tween ® 20, 16% Glycerol, M4N 24.3 mg/mL
  Stability Time at Room Temperature: <7 days
[2]; 75% Sesame Oil, 9% Tween ® 20, 16% Glycerol, M4N 24.3 mg/mL, 60° C.
  Dissolution After Heating: Y at 60 °C
[2]; 80% Olive Oil, 20% Soybean Oil, M4N 60 mg/mL, 70° C.
  Dissolution After Heating: Y at 70 °C
[2]; 85% Sesame Oil, 15% Tween ® 20, M4N 40 mg/mL, 45° C.
  Dissolution After Heating: Y at 45 °C
[2]; 85% Sesame Oil, 15% Tween ® 20, M4N 60 mg/mL, 55° C.
  Dissolution After Heating: Y at 55 °C
[2]; 85% sesame oil and 15% Tween® 20, M4N 60 mg/mL (55° C.) and 40 mg/mL (45° C.)
  solution upon cooling: did not stay in solution
[2]; 89% Sesame Oil, 11% Tween ® 20, M4N 29 mg/mL
  Stability Time at Room Temperature: >7 days
[2]; 89% Sesame Oil, 11% Tween ® 20, M4N 29 mg/mL, 60° C.
  Dissolution After Heating: Y at 60 °C
[2]; 100% Corn Oil, M4N 1 mg/mL
  Stability Time at Room Temperature: >3 days
[2]; 100% Corn Oil, M4N 1 mg/mL, 60° C.
  Dissolution After Heating: Y at 60 °C
[2]; 100% Corn Oil, M4N 10 mg/mL
  Stability Time at Room Temperature: >3 days
[2]; 100% Corn Oil, M4N 10 mg/mL, 60° C.
  Dissolution After Heating: Y at 60 °C
[2]; 100% Corn Oil, M4N 20 mg/mL
  Stability Time at Room Temperature: <3 days
[2]; 100% Corn Oil, M4N 20 mg/mL, 60° C.
  Dissolution After Heating: Y at 60 °C
[2]; 100% Corn Oil, M4N 40 mg/mL
  Stability Time at Room Temperature: <3 days
[2]; 100% Corn Oil, M4N 40 mg/mL, 60° C.
  Dissolution After Heating: Y at 60 °C
[2]; 100% Corn Oil, M4N 50 mg/mL
  Stability Time at Room Temperature: <3 days
[2]; 100% Corn Oil, M4N 50 mg/mL, 60° C.
  Dissolution After Heating: Y at 60 °C
[2]; 100% Corn Oil, M4N 60 mg/mL
  Stability Time at Room Temperature: <1 days
[2]; 100% Corn Oil, M4N 60 mg/mL, 60° C.
  Dissolution After Heating: Y at 60 °C
[2]; 100% Corn Oil, M4N 100 mg/mL, 60° C.
  Dissolution After Heating: Y at 60 °C
[2]; 100% Mineral Oil, M4N 10 mg/mL
  Stability Time at Room Temperature: >7 days
[2]; 100% Mineral Oil, M4N 10 mg/mL, 60° C.
  Dissolution After Heating: Y at 60 °C
[2]; 100% Mineral Oil, M4N 50 mg/mL
  Stability Time at Room Temperature: <1 days
[2]; 100% Mineral Oil, M4N 50 mg/mL, 60° C.
  Dissolution After Heating: Y at 60 °C
[2]; 100% Mineral Oil, M4N 100 mg/mL, 60° C.
  Dissolution After Heating: Y at 60 °C
[2]; 100% Mineral Oil, M4N 200 mg/mL, 60° C.
  Dissolution After Heating: Y at 60 °C
[2]; 100% Olive Oil, M4N 30 mg/mL, 60° C.
  Dissolution After Heating: Y at 60 °C
[2]; 100% Sesame Oil, M4N 10 mg/mL
  Stability Time at Room Temperature: >3 days
[2]; 100% Sesame Oil, M4N 20 mg/mL
  Stability Time at Room Temperature: >3 days
[2]; 100% Sesame Oil, M4N 20 mg/mL, 60° C.
  Dissolution After Heating: Y at 60 °C
[2]; 100% Sesame Oil, M4N 30 mg/mL
  Stability Time at Room Temperature: <3 days
[2]; 100% Sesame Oil, M4N 30 mg/mL, 60° C.
  Dissolution After Heating: Y at 60 °C
[2]; 100% Sesame Oil, M4N 50 mg/mL
  Stability Time at Room Temperature: <1 days
[2]; 100% Sesame Oil, M4N 50 mg/mL, 60° C.
  Dissolution After Heating: Y at 60 °C
[2]; 100% Soybean Oil, M4N 10 mg/mL
  Stability Time at Room Temperature: >7 days
[2]; 100% Soybean Oil, M4N 10 mg/mL, 60° C.
  Dissolution After Heating: Y at 60 °C
[2]; 100% Soybean Oil, M4N 30 mg/mL, 60° C.
  Dissolution After Heating: Y at 60 °C
[2]; 100% Soybean Oil, M4N 50 mg/mL, 60° C.
  Dissolution After Heating: Y at 60 °C
[2]; Peppermint Oil, M4N 1 mg/mL
  Stability Time at Room Temperature: >3 days
[2]; Peppermint Oil, M4N 10 mg/mL
  Stability Time at Room Temperature: >3 days
[2]; Peppermint Oil, M4N 20 mg/mL
  Stability Time at Room Temperature: >3 days
[2]; Peppermint Oil, M4N 40 mg/mL
  Stability Time at Room Temperature: >3 days
[2]; Peppermint Oil, M4N 40 mg/mL, 40° C.
  Dissolution After Heating: Y at 40 °C
[2]; Peppermint Oil, M4N 60 mg/mL
  Stability Time at Room Temperature: <3 days
[2]; Peppermint Oil, M4N 60 mg/mL, 40° C.
  Dissolution After Heating: Y at 40 °C
[2]; Peppermint Oil, M4N 100 mg/mL
  Stability Time at Room Temperature: <1 days
[2]; Peppermint Oil, M4N 100 mg/mL, 40° C.
  Dissolution After Heating: Y at 40 °C
[2]; Peppermint Oil, M4N 125 mg/mL
  Stability Time at Room Temperature: <1 days
[2]; Peppermint Oil, M4N 125 mg/mL, 40° C.
  Dissolution After Heating: Y at 40 °C
[2]; Sesame Oil, Tween ® 20 and Glycerol: 10% Oil emulsion in 90% saline, M4N 2.4 mg/mL
  Stability Time at Room Temperature: <1 days
[2]; M4N 60 mg/mL
  solutions stable: less than 1 day
[2]; M4N 1 and 10 mg/mL
  solutions stable: greater than 3 days
[2]; M4N 20, 40 and 50 mg/mL
  solutions stable: less than 3 days
[2]; olive oil, M4N 30 mg/mL, soluble at 60° C.
  solution after cooling: did not remain in solution after cooling
[2]; M4N 10 mg/mL and 20 mg/mL
  stable at room temperature: more than 3 days
[2]; M4N 30 mg/mL
  stable at room temperature: less than 3 days
